Experimental data from patent US9499538B2, “Estrogen receptor modulators and uses thereof” (Seragon Pharmaceuticals, Inc., priority 2012, dated 2016).

Tests used:
MCF-7 cells = test: Breast Cancer Cell Viability Assays (MCF-7, CellTiter-Glo); format: cell-based; settings: 5 days' compound exposure; for IC50: Homo sapiens, MCF7, 120 h
How it was run: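 Percent viability, background-subtracted against untreated wells, was taken from CellTiter-Glo luminescence after 5 days' exposure of MCF-7 cells. Compounds were tested at eleven semilog concentrations, final 0.3–0.000003 μM, in RPMI containing 10% FBS.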

ER-α in MCF-7 cells = target: T1, ER-α in MCF-7 cells (Homo sapiens, UniProt P03372); test: Breast Cancer Cell ER-α In Cell Western Assay (SP1); format: cell-based; settings: 4 or 24 hr post compound addition; for Emax: MCF7, SP1 antibody, read-out: ER-α In Cell Western Assay (SP1) Max Response; for DC50: SP1 antibody, read-out: ER-α In Cell Western Assay (SP1) IC50
T1 construct: endogenous in cells; host or cells: MCF-7
T1 sequence (P03372 1-595): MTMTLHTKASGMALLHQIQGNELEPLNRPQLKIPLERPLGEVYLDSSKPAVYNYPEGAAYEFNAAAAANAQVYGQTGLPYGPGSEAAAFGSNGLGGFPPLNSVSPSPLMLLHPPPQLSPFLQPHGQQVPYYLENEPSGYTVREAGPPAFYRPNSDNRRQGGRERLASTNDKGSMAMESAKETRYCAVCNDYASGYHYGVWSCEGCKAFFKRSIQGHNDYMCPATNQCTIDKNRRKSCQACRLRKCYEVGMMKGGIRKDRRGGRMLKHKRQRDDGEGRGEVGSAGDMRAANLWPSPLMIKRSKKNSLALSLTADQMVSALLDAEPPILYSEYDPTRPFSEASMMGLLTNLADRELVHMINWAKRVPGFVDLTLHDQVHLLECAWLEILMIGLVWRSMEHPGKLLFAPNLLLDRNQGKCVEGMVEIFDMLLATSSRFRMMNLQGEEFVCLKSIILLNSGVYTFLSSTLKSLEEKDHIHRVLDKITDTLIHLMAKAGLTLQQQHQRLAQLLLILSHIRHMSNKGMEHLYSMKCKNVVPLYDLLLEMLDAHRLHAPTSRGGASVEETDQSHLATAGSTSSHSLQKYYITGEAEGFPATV
How it was run: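 ER-α levels quantified by in-cell western: SP1 signal normalised to DRAQ5 DNA stain, relative to untreated cells (% ER). Compounds at 0.3–0.000003 μM final, 11-point semilog series, 4 or 24 h exposure of MCF-7 cells grown in charcoal-stripped serum.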

Fc1ccc(/C(=C(\c2ccc(/C=C/c3nnn[nH]3)cc2)c2cccc3[nH]ncc23)C2CCC2)c(Cl)c1 [Example 173, 4-((E)-1-(4-((E)-2-(2H-Tetrazol-5-yl)vinyl)phenyl)-2-(2-chloro-4-fluorophenyl)-2-cyclobutylvinyl)-1H-indazole]
MCF7 Viability Assay Max Response (MCF-7 cells): ++ (++ = a single % value ≧ 40%)
IC50 (MCF-7 cells): ≤ 0.1 µM
Emax (ER-α in MCF-7 cells): ≥ 40%
DC50 (ER-α in MCF-7 cells): ≤ 0.1 µM

OCC1CN=C(/C=C/c2ccc(/C(=C(\c3ccccc3)C3CCC3)c3ccc4[nH]nc(F)c4c3)cc2)O1 (centres unmarked) [Example 192, (2-((E)-4-((E)-2-Cyclobutyl-1-(3-fluoro-1H-indazol-5-yl)-2-phenylvinyl)styryl)-4,5-dihydrooxazol-5-yl)methanol]
MCF7 Viability Assay Max Response (MCF-7 cells): ++ (++ = a single % value ≧ 40%)
IC50 (MCF-7 cells): ≤ 0.1 µM
Emax (ER-α in MCF-7 cells): ≥ 40%
DC50 (ER-α in MCF-7 cells): ≤ 0.1 µM

N#Cc1ccc(/C(=C(\c2ccc(/C=C/C(=O)O)cc2)c2ccc3[nH]nc(F)c3c2)C2CCC2)c(Cl)c1 [Example 40, (E)-3-(4-((E)-2-(2-Chloro-4-cyanophenyl)-2-cyclobutyl-1-(3-fluoro-1H-indazol-5-yl)vinyl)phenyl)acrylic acid]
MCF7 Viability Assay Max Response (MCF-7 cells): ++ (++ = a single % value ≧ 40%)
IC50 (MCF-7 cells): ≤ 0.1 µM
Emax (ER-α in MCF-7 cells): ≥ 40%
DC50 (ER-α in MCF-7 cells): ≤ 0.1 µM

O=C(O)/C=C/c1ccc(/C(=C(\c2ccccc2)C2CCC2)c2ccc3[nH]nc(F)c3c2)cn1 [Example 36, (E)-3-(5-((Z)-2-Cyclobutyl-1-(3-fluoro-1H-indazol-5-yl)-2-phenylvinyl)pyridin-2-yl)acrylic acid]
MCF7 Viability Assay Max Response (MCF-7 cells): ++ (++ = a single % value ≧ 40%)
IC50 (MCF-7 cells): ≤ 0.1 µM
Emax (ER-α in MCF-7 cells): ≥ 40%
DC50 (ER-α in MCF-7 cells): ≤ 0.1 µM

CC/C(=C(/c1ccc(/C=C/C(=O)O)cc1)c1ccc2scnc2c1C#N)c1ccccc1 [Example 19, (E)-3-(4-((E)-1-(4-Cyanobenzo[d]thiazol-5-yl)-2-phenylbut-1-en-1-yl)phenyl)acrylic acid]
MCF7 Viability Assay Max Response (MCF-7 cells): ++ (++ = a single % value ≧ 40%)
IC50 (MCF-7 cells): ≤ 0.1 µM
Emax (ER-α in MCF-7 cells): ≥ 40%
DC50 (ER-α in MCF-7 cells): ≤ 0.1 µM

N#Cc1ccc(/C(=C(\c2ccc(/C=C/C(=O)O)cc2)c2ccc3[nH]nc(F)c3c2)C2CCC2)c(C#N)c1 [Example 62, (E)-3-(4-((E)-2-Cyclobutyl-2-(2,4-dicyanophenyl)-1-(3-fluoro-1H-indazol-5-yl)vinyl)phenyl)acrylic acid]
MCF7 Viability Assay Max Response (MCF-7 cells): ++ (++ = a single % value ≧ 40%)
IC50 (MCF-7 cells): ≤ 0.1 µM
Emax (ER-α in MCF-7 cells): ≥ 40%
DC50 (ER-α in MCF-7 cells): ≤ 0.1 µM

COc1cc(C)c(/C(=C(\c2ccc(/C=C/C(=O)O)cc2)c2ccc3scnc3c2)C2CCC2)cn1 [Example 85, (E)-3-(4-((E)-1-(Benzo[d]thiazol-5-yl)-2-cyclobutyl-2-(6-methoxy-4-methylpyridin-3-yl)vinyl)phenyl)acrylic acid]
MCF7 Viability Assay Max Response (MCF-7 cells): ++ (++ = a single % value ≧ 40%)
IC50 (MCF-7 cells): ≤ 0.1 µM
Emax (ER-α in MCF-7 cells): ≥ 40%
DC50 (ER-α in MCF-7 cells): ≤ 0.1 µM

N#Cc1ccc(/C(=C(\c2ccc(/C=C/C(=O)O)cc2)c2ccc3[nH]ncc3c2)C2CCC2)c(F)c1 [Example 53, (E)-3-(4-((E)-2-(4-Cyano-2-fluorophenyl)-2-cyclobutyl-1-(1H-indazol-5-yl)vinyl)phenyl)acrylic acid]
MCF7 Viability Assay Max Response (MCF-7 cells): ++ (++ = a single % value ≧ 40%)
IC50 (MCF-7 cells): ≤ 0.1 µM
Emax (ER-α in MCF-7 cells): ≥ 40%
DC50 (ER-α in MCF-7 cells): ≤ 0.1 µM

Cc1cc(/C(=C(\c2ccccc2)C2CCC2)c2ccc3[nH]nc(F)c3c2)ccc1/C=C/C(=O)O [Example 37, (E)-3-(4-((E)-2-Cyclobutyl-1-(3-fluoro-1H-indazol-5-yl)-2-phenylvinyl)-2-methylphenyl)acrylic acid]
MCF7 Viability Assay Max Response (MCF-7 cells): ++ (++ = a single % value ≧ 40%)
IC50 (MCF-7 cells): ≤ 0.1 µM
Emax (ER-α in MCF-7 cells): ≥ 40%
DC50 (ER-α in MCF-7 cells): ≤ 0.1 µM

O=C(O)/C=C/c1ccc(/C(=C(\c2ccc(Cl)cc2C(F)(F)F)C2CCC2)c2ccc3nccn3c2)cc1 [Example 223, (E)-3-(4-((E)-2-(4-Chloro-2-(trifluoromethyl)phenyl)-2-cyclobutyl-1-(imidazo[1,2-a]pyridin-6-yl)vinyl)phenyl)acrylic acid]
MCF7 Viability Assay Max Response (MCF-7 cells): ++ (++ = a single % value ≧ 40%)
IC50 (MCF-7 cells): ≤ 0.1 µM
Emax (ER-α in MCF-7 cells): ≥ 40%
DC50 (ER-α in MCF-7 cells): ≤ 0.1 µM

O=C(O)/C=C/c1ccc(/C(=C(\c2ncccc2F)C2CCC2)c2ccc3scnc3c2)cc1 [Example 99, (E)-3-(4-((E)-1-(Benzo[d]thiazol-5-yl)-2-cyclobutyl-2-(3-fluoropyridin-2-yl)vinyl)phenyl)acrylic acid]
MCF7 Viability Assay Max Response (MCF-7 cells): ++ (++ = a single % value ≧ 40%)
IC50 (MCF-7 cells): ≤ 0.1 µM
Emax (ER-α in MCF-7 cells): ≥ 40%
DC50 (ER-α in MCF-7 cells): ≤ 0.1 µM

CC/C(=C(/c1ccc(/C=C/C(=O)O)cc1)c1ccc2[nH]nc(F)c2c1)c1ccc(OC)nc1C [Example 70, (E)-3-(4-((E)-1-(3-Fluoro-1H-indazol-5-yl)-2-(6-methoxy-2-methylpyridin-3-yl)but-1-en-1-yl)phenyl)acrylic acid]
MCF7 Viability Assay Max Response (MCF-7 cells): ++ (++ = a single % value ≧ 40%)
IC50 (MCF-7 cells): ≤ 0.1 µM
Emax (ER-α in MCF-7 cells): ≥ 40%
DC50 (ER-α in MCF-7 cells): ≤ 0.1 µM

CS(=O)(=O)c1cc(Cl)ccc1/C(=C(\c1ccc(/C=C/C(=O)O)cc1)c1ccc2[nH]nc(F)c2c1)C1CCC1 [Example 282, (E)-3-(4-((E)-2-(4-Chloro-2-(methylsulfonyl)phenyl)-2-cyclobutyl-1-(3-fluoro-1H-indazol-5-yl)vinyl)phenyl)acrylic acid]
MCF7 Viability Assay Max Response (MCF-7 cells): ++ (++ = a single % value ≧ 40%)
IC50 (MCF-7 cells): ≤ 0.1 µM
Emax (ER-α in MCF-7 cells): ≥ 40%
DC50 (ER-α in MCF-7 cells): ≤ 0.1 µM

O=C(O)/C=C/c1ccc(/C(=C(\c2ncccc2Cl)C2CCC2)c2ccc3[nH]nc(F)c3c2)cn1 [Example 259, (E)-3-(5-((Z)-2-(3-Chloropyridin-2-yl)-2-cyclobutyl-1-(3-fluoro-1H-indazol-5-yl)vinyl)pyridin-2-yl)acrylic acid]
MCF7 Viability Assay Max Response (MCF-7 cells): ++ (++ = a single % value ≧ 40%)
IC50 (MCF-7 cells): ≤ 0.1 µM
Emax (ER-α in MCF-7 cells): ≥ 40%
DC50 (ER-α in MCF-7 cells): ≤ 0.1 µM

Fc1n[nH]c2ccc(/C(=C(/c3ccccc3)C3CCC3)c3ccc(/C=C/c4ncc[nH]4)cc3)cc12 [Example 285, 5-((E)-1-(4-((E)-2-(1H-Imidazol-2-yl)vinyl)phenyl)-2-cyclobutyl-2-phenylvinyl)-3-fluoro-1H-indazole]
MCF7 Viability Assay Max Response (MCF-7 cells): ++ (++ = a single % value ≧ 40%)
IC50 (MCF-7 cells): ≤ 0.1 µM
Emax (ER-α in MCF-7 cells): ≥ 40%
DC50 (ER-α in MCF-7 cells): ≤ 0.1 µM

O=C(O)/C=C/c1ccc(/C(=C(\c2ncc(F)cc2Cl)C2CCC2)c2ccc3[nH]nc(F)c3c2)cc1F [Example 253, (E)-3-(4-((Z)-2-(3-Chloro-5-fluoropyridin-2-yl)-2-cyclobutyl-1-(3-fluoro-1H-indazol-5-yl)vinyl)-2-fluorophenyl)acrylic acid]
MCF7 Viability Assay Max Response (MCF-7 cells): ++ (++ = a single % value ≧ 40%)
IC50 (MCF-7 cells): ≤ 0.1 µM
Emax (ER-α in MCF-7 cells): ≥ 40%
DC50 (ER-α in MCF-7 cells): ≤ 0.1 µM

N#Cc1ccc(/C(=C(\c2ccc(/C=C/C(=O)O)cc2)c2ccc3[nH]ncc3c2)C2CCC2)c(Cl)c1 [Example 43, (E)-3-(4-((E)-2-(2-Chloro-4-cyanophenyl)-2-cyclobutyl-1-(1H-indazol-5-yl)vinyl)phenyl)acrylic acid]
MCF7 Viability Assay Max Response (MCF-7 cells): ++ (++ = a single % value ≧ 40%)
IC50 (MCF-7 cells): ≤ 0.1 µM
Emax (ER-α in MCF-7 cells): ≥ 40%
DC50 (ER-α in MCF-7 cells): ≤ 0.1 µM

O=C(O)/C=C/c1ccc(/C(=C(\c2ccc(C(F)(F)F)cc2Cl)C2CCC2)c2ccc3scnc3c2)cc1 [Example 274, (E)-3-(4-((E)-1-(Benzo[d]thiazol-5-yl)-2-(2-chloro-4-(trifluoromethyl)phenyl)-2-cyclobutylvinyl)phenyl)acrylic acid]
MCF7 Viability Assay Max Response (MCF-7 cells): ++ (++ = a single % value ≧ 40%)
IC50 (MCF-7 cells): ≤ 0.1 µM
Emax (ER-α in MCF-7 cells): ≥ 40%
DC50 (ER-α in MCF-7 cells): ≤ 0.1 µM

COc1ccc(/C(=C(\c2ccc(/C=C/C(=O)O)cc2)c2ccc3[nH]nc(F)c3c2)C2CCC2)c(C#N)c1 [Example 44, (E)-3-(4-((E)-2-(2-Cyano-4-methoxyphenyl)-2-cyclobutyl-1-(3-fluoro-1H-indazol-5-yl)vinyl)phenyl)acrylic acid]
MCF7 Viability Assay Max Response (MCF-7 cells): ++ (++ = a single % value ≧ 40%)
IC50 (MCF-7 cells): ≤ 0.1 µM
Emax (ER-α in MCF-7 cells): ≥ 40%
DC50 (ER-α in MCF-7 cells): ≤ 0.1 µM

COc1cncc(/C(=C(\c2ccc(/C=C/C(=O)O)cc2)c2ccc3[nH]nc(F)c3c2)C2CCC2)c1 [Example 132, (E)-3-(4-((E)-2-Cyclobutyl-1-(3-fluoro-1H-indazol-5-yl)-2-(5-methoxypyridin-3-yl)vinyl)phenyl)acrylic acid]
MCF7 Viability Assay Max Response (MCF-7 cells): ++ (++ = a single % value ≧ 40%)
IC50 (MCF-7 cells): ≤ 0.1 µM
Emax (ER-α in MCF-7 cells): ≥ 40%
DC50 (ER-α in MCF-7 cells): ≤ 0.1 µM
